{
  "source": "patent US20100322979A1",
  "about": "“Peptidomimetic Resorbable Peptide-Polymer Hybrid Polyester Nanoparticles” (UNIVERSITY OF SOUTH CAROLINA, priority 2009, published 2010)",
  "key": {"[1]": {"test": "NP morphology and size distribution by electron microscopy and dynamic light scattering", "assay_type": "physicochemical", "conditions": "Example 2", "text": "Fumarate functionalized poly(lactide-co-glycolide) (PLGF) NPs are conjugated with CV6K2 peptide to stabilize the NPs through specific interactions between the amino acid side chains. Low molecular weight poly(lactide-co-glycolide) (LMW PLGA) are synthesized by ring opening polymerization of a mixture of lactide and glycolide monomers. PLGF was synthesized by polymerization of ULMW PLGA with fumaryl chloride (FuCl). The fumarate groups in PLGF macromer provide functionality for covalent attachment of ligands which bind with high specificity to receptors on tumor-associated cells, like the αvβ3 integrin receptor. ULMW PLGA with number-average molecular weight in the range 1-3 kDa was used in the synthesis of PLGF for highest density of unsaturated fumarate groups for ligand conjugation. […] The morphology and size distribution of the NPs were determined by SEM and dynamic light scattering, respectively. […]\nNanoparticle (NP) self-assembly and characterization: PLAF-CV6K2 or PLGF-CV6K2 macromers were dissolved in a solution of 1 mL DMF and 8 mL dimethysulfoxide (DMSO). […] The size distribution of NPs was measured by dynamic light scattering (DLS). […] At each time point, NPs size was measured with DLS. […] The fraction of mass remaining was determined by dividing the dried mass in the supernatant at time t by the initial mass at time zero."}, "[2]": {"test": "Release kinetics of Paclitaxel from NPs in-vitro in PBS (pH 7.4)", "assay_type": "physicochemical", "procedure": "Degradation and release characteristics of NPs. PLGF macromer with 100:0 lactide to glycolide ratio (PLAF) was synthesized by condensation polymerization. CV6K2 peptide was conjugated to PLAF to produce CV6K2-PLAF macromer. PLGF-PLEOF and CV6K2-PLGF NPs were produced by dialysis of the macromers in dimethylsulfoxide/dimethylformamide (DMSO/DMF) against water. Degradation of PLGF-PLEOF NPs was non-linear with incubation. […] To measure release kinetics, Paclitaxel was used as the surrogate molecule. Paclitaxel loaded NPs were prepared by dialysis. After dialysis, the NPs were dissolved in DMSO and 3 ml of acetonitrile-water mixture (50:50 v/v) was added. After 2 h, the suspension was centrifuged and the amount of Paclitaxel in the supernatant was measured by isocratic reverse-phase HPLC with a photodiode array detector at the wavelength of 227 nm. The encapsulation efficiency ranged from 70 to 56% and decreased with increasing Paclitaxel concentration. […]\nRelease profiles of Paclitaxel from CV6K2 NPs: NPs (6% Paclitaxel by weight of the PLAF or PLGF macromer) were prepared by dialysis. After dialysis for 24 h to self-assemble the macromers and to remove the unencapsulated Paclitaxel, encapsulation efficiency was determined by HPLC. The release kinetics of Paclitaxel from the NPs was measured in-vitro in PBS (pH 7.4) for up to 28 days. […]"}, "HCT116 tumor cell line": {"system": "HCT116 tumor cell line", "test": "Tumor cell toxicity, MTT assay", "assay_type": "cell-based", "conditions": "Homo sapiens, HCT-116, 72 h; 40 μg/ml Paclitaxel, after 3 days; read-out: cell viability (percentage of drug-free samples)", "procedure": "Tumor cell toxicity was determined by incubating Paclitaxel drug, encapsulated in NPs, with HCT116 tumor cell line, seeded at a density of 5×10^4 cells/cm^2 and cultured in basal media (40 μg/ml Paclitaxel) for 24, 48, and 72 h. At each time point, suspension was removed, cells were washed with PBS, and viability was assessed by the MTT assay. FIG. 3(d) compares cell viability of HCT116 cells (expressed as the percentage of the values obtained from cells in the presence of drug compared to those in drug-free samples) incubated with 40 μg/ml Paclitaxel with that incubated with the same concentration encapsulated in PLGF NPs. […] Cell viability of Paclitaxel in solution after 3 days was 40% while that encapsulated in NPs was 28%. […] Toxicity of CV6K2-PLGF NPs to normal cells was assessed with bone marrow stromal (BMS) cells isolated from the bone marrow of Wistar rats. BMS cells were seeded in 24 well plates in primary media at a density of 4×10^4 cells/cm^2, incubated for 24 h for cell attachment. After cell attachment, the media was replaced with media containing […] of CV6K2-PLGF NPs and incubated for 1, 2, and 3 days. At each time point, the cells were washed with PBS to remove the free NPs, and the fraction of viable cells was measured by the MTT assay."}, "mouse breast cancer MTCL": {"system": "mouse breast cancer MTCL", "test": "In vivo effect of the NPs on host toxicity and anti-tumor efficacy", "conditions": "tail vein injection; Dox 6 mg/kg of body weight where present", "procedure": "In accordance with the present disclosure, a mouse breast cancer MTCL grown under the back skin of syngeneic C3H mice was utilized. When the tumor size reached 300 mm^3, mice were randomly divided into 6 groups (10 mice/group) and received one of these treatments by tail vein injection: PBS, PLAA-EO NPs, PLAA-CV6K2 NPs, Dox, Dox+PLAA-EO NPs, and Dox+PLAA-CV6K2 NPs. The injected Dox amount was 6 mg/kg of body weight. After the treatment, body weight and tumor size were measured daily and the results are shown in FIGS. 10a and 10b, respectively. […] Near-infrared (NIR) imaging was used to determine in vivo distribution of the NPs loaded with near-infrared dye IRDye 800RS Carboxylate (absorption at 786 nm). The infrared intensity in the intestinal region was at least 100 times higher than the other regions (confirmed by sacrificing the animal and directly imaging the intestinal tissue as shown in the inset of FIG. 10c)."}, "MCF-7 cells": {"system": "MCF-7 cells", "test": "Binding of cyclic peptide grafted NPs to tumor cells, confocal microscopy", "assay_type": "cell-based", "text": "(§1) Targeting to tumor endothelial cells by grafting cyclic c(-RGDfC-) peptide to NPs: The linear D-Phe-Cys-Arg-Gly-Asp peptide was synthesized manually using Fmoc chemistry. After peptide chain elongation, the linear peptide was cyclized directly on the peptidyl resin by coupling the carboxylate group on aspartic acid to the amine group on phenylalanine in the peptide sequence. The cyclized peptide was side-chain deprotected, cleaved from the resin, precipitated in cold ether, and purified by preparative high-performance liquid chromatography (HPLC). The cyclic peptide was characterized by Electro Spray Ionization (ESI) spectrometry For grafting, […] peptide was incubated with NPs at ambient conditions for 10 h. After grafting, the NPs were purified by dialysis against water and incubated with MCF-7 and U87MG tumor cells. After incubation, unattached NPs were removed by washing, cells were fixed, and stained with phalloidin (for cytoskeleton) and DAPI (for cell nuclei) and imaged with confocal microscopy. FIGS. 5(a) and 5(b) show the image of MCF-7 and U87MG cells, respectively. The bright dots in FIG. 5(b) and their absence in FIG. 5(a) are the FITC-stained c(-GRGfC-) peptide grafted NPs that are attached/internalized by U87MG cells that have high expression of αvβ3 integrin receptor."}, "[3]": {"system": "U87MG cells (high expression of αvβ3 integrin receptor)", "test": "Binding of cyclic peptide grafted NPs to tumor cells, confocal microscopy", "assay_type": "cell-based", "text": "as §1"}},
  "note": "Read-outs that look alike come from different tables or passages of the source. Ends that are not written are not given here.",
  "data": [
    {"molecule": "CVVVVVVKK [CV6K2 NPs, NPs self-assembled from the CV6K2 peptide only]", "values": [
      {"measurement": "average diameter (NP size), DLS", "setting": "[1]", "result": 70, "unit": "nm"},
      {"measurement": "duration of Paclitaxel release", "setting": "[2]", "result": 3, "unit": "days"},
      {"measurement": "duration of Paclitaxel release", "setting": "[2]; listed as peptide", "result": 5, "unit": "days"}
    ]},
    {"molecule": "CC(=O)O[C@H]1C(=O)[C@@]2(C)[C@H]([C@H](OC(=O)c3ccccc3)[C@]3(O)C[C@H](OC(=O)[C@H](O)[C@@H](NC(=O)c4ccccc4)c4ccccc4)C(C)=C1C3(C)C)[C@]1(OC(C)=O)CO[C@@H]1C[C@@H]2O", "note": "[Paclitaxel]", "values": [
      {"measurement": "viability at 40 µg/mL", "setting": "HCT116 tumor cell line", "result": 40, "unit": "%"}
    ]},
    {"molecule": "COc1cccc2c1C(=O)c1c(O)c3c(c(O)c1C2=O)C[C@@](O)(C(=O)CO)C[C@@H]3O[C@H]1C[C@H](N)[C@H](O)[C@H](C)O1", "note": "[Dox]", "values": [
      {"measurement": "host toxicity (body weight change)", "setting": "mouse breast cancer MTCL", "result": "highest body weight loss"}
    ]},
    {"molecule": "c(-GRGfC-) grafted NPs: FITC-stained NPs grafted with cyclic D-Phe-Cys-Arg-Gly-Asp peptide", "values": [
      {"measurement": "attachment/internalization of FITC-stained grafted NPs", "setting": "MCF-7 cells", "result": "absence"},
      {"measurement": "attachment/internalization of FITC-stained grafted NPs", "setting": "[3]", "result": "attached/internalized"}
    ]}
  ]
}
